Results published in patent US10851069B2, “Compositions of crystallized hydrophobic compounds and methods of making and using same” (Massachusetts Institute of Technology, priority 2016, dated 2020).

Columns and labels:
[1] = In vitro drug release from alginate capsules loaded with crystalline or amorphous formulations; type: physicochemical
Protocol: Release study was carried out in 3 different media, a normal saline-Isopropyl alcohol (10%) mixture, a phosphate buffer (pH 7.4), or for accelerated condition with phosphate buffered saline (pH 7.4) either with 0.1% w/v or 03% w/v SDS. Release study at NS+10% IPA was carried out in 2 ml medium at 37° C. Sampling was carried out by replacement of 1.5 ml of release medium by total replacement of release medium with fresh medium. […] For release in accelerated condition (PBS+SDS), the same time points were followed while 20 μl of drug loaded capsules were incubated in 2 ml release medium to achieve sink conditions. Drug concentration in samples was measured by reverse phase HPLC on C-18 column with a mobile phase or using UV calibrated system. An isocratic mode was set at a flow rate of 0.5-2 ml/min and a different wave-length of nm and 20-50 μl of samples was injected into an HPLC system (Waters, LC-Module-I) or UV analyzed. Calibration curves were prepared in concentration range of 0.05-10 μg/ml. Using prepared calibration curves, drugs concentration in different release samples were calculated.

C57BL/6 mice [2] = assay: Crystalline drug-loaded alginate capsules, long-term IP/SC implantation, prevention of fibrosis; type: in vivo; details: crystalline form in alginate capsules, retrieved after 1, 3 and 6 months from IP space
Text: Lead compounds identified by screening the amorphous formulations (e.g., compounds of Formulae I-X, particularly LY215799, Dx, Curcumin, GW2580, QNZ and Ki20227) were studied for long-term release and prevention of fibrosis following encapsulation in crystalline form and implantation into the intraperitoneal (IP) space of C57BL/6 mice for long term testing. […] Drug extraction analysis by HPLC also determined that notable percentages (e.g., more than 50%) of the loaded drug remained within the retrieved capsules (FIG. 22D), particularly in the subcutaneous implanted samples. […] In contrast, capsules retrieved from the IP space 6 months post-implantation were identified with only 2-40% of the loaded drug remaining within the retrieved capsules.
All animal protocols were approved by the MIT Committee on Animal Care, and all surgical procedures and post-operative care was supervised by MIT Division of Comparative Medicine veterinary staff. Immune-competent male non-diabetic or STZ-induced diabetic C57BL/6 mice (Jackson Laboratory, Bar Harbor, Me.) were anesthetized with 3% isoflurane in oxygen and had their abdomens shaved and sterilized using betadine and isopropanol. Preoperatively, all mice also received a 0.05 mg/kg dose of buprenorphine subcutaneously as a pre-surgical analgesic, along with 0.3 mL of 0.9% saline subcutaneously to prevent dehydration. A […] incision was made along the midline of the abdomen and the peritoneal lining was exposed using blunt dissection. The peritoneal wall was then grasped with forceps and a 0.5-1 mm incision was made along the linea alba. A desired volume of spheres (all materials without islets, as well as SLG20 spheres encapsulating rat islets) were then loaded into a sterile pipette and implanted into the peritoneal cavity through the incision. The incision was then closed using 5-0 taper-tipped polydioxanone (PDS II) absorbable sutures. The skin was then closed over the incision using a wound clip and tissue glue.
At desired time points post-implantation or transplantation (with encapsulated islets), as specified in figures, mice were euthanized by CO2 administration, followed by cervical dislocation. In certain instances, 5 ml of ice cold PBS was first injected in order perform an intraperitoneal lavage to rinse out and collect free-floating intraperitoneal immune cells. An incision was then made using the forceps and scissors along the abdomen skin and peritoneal wall, and intraperitoneal lavage volumes were pipetted out into fresh 15 ml falcon tubes (each prepared with 5 ml of RPMI cell culture media). Next, a wash bottle tip was inserted into the abdominal cavity. KREBS buffer was then used to wash out all material spheres from the abdomen and into petri dishes for collection. After ensuring all the spheres were washed out or manually retrieved (if fibrosed directly to intraperitoneal tissues), they were transferred into 50 mL conical tubes for downstream processing and imaging. After intraperitoneal lavage and sphere retrieval, remaining fibrosed intraperitoneal tissues were also excised for downstream FACS and expression analyses.
For phase contrast imaging, retrieved materials were gently washed using Krebs buffer and transferred into 35 mm petri dishes for phase contrast microscopy using an Evos X1 microscope (Advanced Microscopy Group).
Immunofluorescence imaging was used to determine immune populations attached to spheres. […]

C57BL/6 mice [3] = assay: Anti-fibrotic screening of amorphous drug formulations in 500 μm alginate capsules, 2-week intraperitoneal implantation; type: in vivo; details: conclusion; alginate hydrogel, ceramic, glass, PDMS and polystyrene beads
Text: For screening of anti-fibrotic drug activity, amorphous drug formulations were encapsulated inside 500 μm alginate capsules. Broad-spectrum anti-inflammatory agents curcumin, dexamethasone, and rapamycin have been used for preventing fibrosis of various biomaterials, such as polymer PLGA and hydrogel alginate. A panel of lead drug candidates (e.g., compounds of Formulae I-X) including the traditional broad-spectrum anti-inflammatories as well as agents targeted to essential macrophage biology pathways (e.g., TNFα, NFκB, p110δ/PI3K, TGFβ, and CSF1R) were selected. […] SLG20 alginate hydrogel spheres with these lead drug candidates were prepared as amorphous formulations to investigate the effect of macrophage immunomodulation on foreign body response. Drugs were encapsulated in amorphous form prepared by first dissolving in an organic solvent (e.g., vehicle in FIGS. 7, 9) then by mixing with alginate aqueous solution. Efficacy in preventing fibrosis was assessed in C57BL/6 mice at 2-weeks post implantation into the intraperitoneal (IP) cavity. Drug-containing spheres (500 μl/animal) were then implanted into the intraperitoneal space of C57BL/6 mice for 14 days. After this period, spheres were harvested and studied for cellular deposition and fibrosis.
All animal protocols were approved by the MIT Committee on Animal Care, and all surgical procedures and post-operative care was supervised by MIT Division of Comparative Medicine veterinary staff. Immune-competent male non-diabetic or STZ-induced diabetic C57BL/6 mice (Jackson Laboratory, Bar Harbor, Me.) were anesthetized with 3% isoflurane in oxygen and had their abdomens shaved and sterilized using betadine and isopropanol. Preoperatively, all mice also received a 0.05 mg/kg dose of buprenorphine subcutaneously as a pre-surgical analgesic, along with 0.3 mL of 0.9% saline subcutaneously to prevent dehydration. A […] incision was made along the midline of the abdomen and the peritoneal lining was exposed using blunt dissection. […]

[4] = test system: inflammatory macrophage markers Sphk1, TNFα, Arg1, IL1; assay: NanoString multiplexed gene expression analysis of retrieved capsules; type: in vivo, C57BL/6 mice; details: amorphous drug-loaded capsules, 2 weeks IP; CSF1R-targeting agents compared
Protocol: RNAs for mock-implanted (mock) controls, or for various drug-loaded 0.5 mm diameter alginate sphere-bearing mice (n=4/group) were isolated from tissue samples taken at various time points after implantation, as described. Respective RNAs were quantified, diluted to the appropriate concentration (100 ng/μl), and then 500 ng of each sample was processed according to NanoString manufacturer protocols for expression analysis via our customized multiplexed gene mouse macrophage subtyping panel. RNA levels (absolute copy numbers) were obtained following nCounter (NanoString Technologies Inc., Seattle, Wash.) quantification, and group samples were analyzed using nSolver analysis software (NanoString Technologies Inc., Seattle, Wash.).

Compound | fibrosis by phase contrast imaging and confocal microscopy (C57BL/6 mice [2]) | efficacy in inhibiting fibrosis of implanted biomaterial (C57BL/6 mice [3]) | further results
COc1cc(/C=C/C(=O)CC(=O)/C=C/c2ccc(O)c(OC)c2)ccc1O [Curcumin, (1E,6E)-1,7-bis (4-hydroxy-3-methoxyphenyl)-1,6-heptadiene-3,5-dione] | fibrosis free |  | drug release profile ([1]; amorphous curcumin encapsulated in alginate, in vitro up to 2 months): quicker drug release; drug release profile ([1]; crystalline curcumin encapsulated in alginate, in vitro up to 2 months): releases more slowly initially, but can be maintained for much longer periods of time; duration of long-term release (slow surface erosion) ([1]; crystalline curcumin loaded into alginate spheres): at least 2 months; drug release profile ([1]; mixed crystalline:amorphous 3:1 curcumin in alginate): both quick and extended release
Nc1ccc2ncnc(NCCc3ccc(Oc4ccccc4)cc3)c2c1 [QNZ, N4-(4-phenoxyphenethyl)quinazoline-4,6-diamine] | fibrosis free |  | 
COc1cc(Oc2ccnc3cc(OC)c(OC)cc23)ccc1NC(=O)NC(C)c1nccs1 (centres unmarked) [Ki20227, N-[4-[(6,7-Dimethoxy-4-quinolinyl)oxy]-2-methoxyphenyl]-N′-[1-(2-thiazolyl)ethyl]urea] | fibrosis free | demonstrated efficacy in inhibiting fibrosis | 
Cc1ccc(Nc2c(C(N)=O)cnc3cc(-c4ccc(S(C)(=O)=O)cc4)ccc23)cc1C [cFMS receptor inhibitor III, 4-(3,4-Dimethylanilino)-7-(4-(methylsulfonyl)phenyl)quinoline-3-carboxamide] |  | demonstrated efficacy in inhibiting fibrosis | gene expression responses [4]: almost identical gene expression responses
Cc1cccc(-c2nn3c(c2-c2ccnc4ccc(C(N)=O)cc24)CCC3)n1 [LY215799, 4-(2-(6-methylpyridin-2-yl)-5,6-dihydro-4H-pyrrolo[1,2-b]pyrazol-3-yl)quinoline-6-carboxamide] | fibrosis free |  | 
